Results published in US20250261639A1, “ZEALACTONE DERIVATIVES AS PLANT GROWTH REGULATORS” (SYNGENTA CROP PROTECTION AG, priority 2020, published 2025).

What was measured:
[1] = tested on: Corn seeds (var. NK Falkone); experiment: Corn seed germination under cold stress conditions; type: in vivo; conditions: Zea mays, 15° C., 60% Relative Humidity; for change in vivo at 250 µM: read-out: increase of the slope of the curve at Tso (uniformity of germination) compared to untreated control; for percent reduction of T50 germination time vs untreated control at 250 µM: read-out: reduction of the Tso value (time taken for 50% germination; speed of germination) in comparison with untreated control
Method: Method: Corn seeds (var. NK Falkone, Syngenta Seeds SAS, St. Sauveur, France) were sorted by size using a sieve to eliminate round seeds. The corn seeds were placed in 24 well plates (1 seed per well, each plate was considered as one experimental unit or replicate). Germination was initiated by the addition of 250 μL of distilled water containing 0.5% DMSO per well (and the tested the substance at the given concentration). 8 replicates (i.e., 8 plates) were used for each treatment characterization. Plates were sealed using seal foil (Polyolefin Art. Nr. 900320) from HJ-BIOANALYTIK. All plates were placed in a climatic chamber at 15° C. with 60% Relative Humidity. The experiment was laid out in a completely randomized design.
Germination was followed over time by taking photographs at different time points. Image analysis was performed automatically with a macro which was developed using the Image J software. A kinetic analysis of germination was carried out by fitting a trend curve. Three parameters were calculated from the trend curve: the Tso (time taken for 50% germination; speed of germination); the slope of the curve (the uniformity of germination) and the plateau (the total percentage of germinated seeds).
The treatments with a given compound were performed at 4 concentrations 2, 10, 50, and 250 μM.

[2] = tested on: Corn leaf discs (variety Multitop); experiment: Dark induced senescence of corn leaf; conditions: Zea mays, foliar, 192 h; leaf discs in the dark, 23° C., 75% humidity, 8 days, 0.5% DMSO; read-out: IC50 (concentration at which 50% senescence was achieved)
Method: It is known that strigolactones regulate (accelerate) leaf senescence, potentially through D14 receptor signaling. It is also known that senescence is an important process allowing reallocation of nutrients. Compounds of formula (I) were tested in a corn leaf dark induced senescence assay and compared to untreated control.
Corn plants of variety Multitop were grown in a greenhouse with relative 75% humidity and at 23-25° C. for 6 weeks. 1.4 cm diameter leaf discs were placed into 24-well plates containing a test compounds in a concentration gradient (100 μM-0.0001 μM) at a final concentration of 0.5% DMSO. Each concentration was tested in 12 replicates. Plates were sealed with seal foil. The foil was pierced to provide gas exchange in each well. The plates were placed into the completely dark climatic chamber. Plates were incubated in the chamber with 75% humidity and at 23° C. for 8 days. On days 0, 5, 6, 7 and 8 photographs were taken of each plate, and image analysis conducted with a macro developed using the ImageJ software. The image analysis was used to determine the concentration at which 50% senescence was achieved (IC50). The lower the value, the higher senescence induction potency.

Compound	change in vivo at 250 µM [1]	percent reduction of T50 germination time vs untreated control at 250 µM [1]	IC50 [2]
COC(=O)C(/C=C/C1CCC(F)(F)CC1)=C/OC1C=C(C)C(=O)O1 (centres unmarked) [Compound P-2, methyl (E,2E)-4-(4,4-difluorocyclohexyl)-2-[(4-methyl-5-oxo-2H-furan-2-yl)oxymethylene]but-3-enoate]	> 50%	> 5%	< 3000 nM
COC(=O)C(/C=C/C1CCCCC1)=C/OC1OC(=O)C(C)=C1C (centres unmarked) [Compound P-3, methyl (E,2E)-4-cyclohexyl-2-[(3,4-dimethyl-5-oxo-2H-furan-2-yl)oxymethylene]but-3-enoate]	> 50%	> 5%	
COC(=O)C(/C=C/C12CC3CC(CC(C3)C1)C2)=C/OC1C=C(C)C(=O)O1 (centres unmarked) [Compound P-4, methyl (E,2E)-4-(1-adamantyl)-2-[(4-methyl-5-oxo-2H-furan-2-yl)oxymethylene]but-3-enoate]		> 5%	< 3000 nM
COC(=O)C(/C=C/C1(C)CCCC1)=C/OC1C=C(C)C(=O)O1 (centres unmarked) [Compound P-6, methyl (E,2E)-4-(1-methylcyclopentyl)-2-[(4-methyl-5-oxo-2H-furan-2-yl)oxymethylene]but-3-enoate]	> 50%	> 5%	< 3000 nM
COC(=O)C(/C=C/C1(C)CC1)=C/OC1C=C(C)C(=O)O1 (centres unmarked) [Compound P-7, methyl (E,2E)-4-(1-methylcyclopropyl)-2-[(4-methyl-5-oxo-2H-furan-2-yl)oxymethylene]but-3-enoate]			< 3000 nM
COC(=O)/C=C/C(=C\OC1C=C(C)C(=O)O1)C(=O)OC (centres unmarked) [Compound P-8, dimethyl (E,4E)-4-[(4-methyl-5-oxo-2H-furan-2-yl)oxymethylene]pent-2-enedioate]	> 50%	> 5%	< 3000 nM
COC(=O)/C(C=C(C)C)=C/OC1C=C(C)C(=O)O1 (centres unmarked) [Compound P-9, methyl (2E)-4-methyl-2-[(4-methyl-5-oxo-2H-furan-2-yl)oxymethylene]pent-3-enoate]	> 50%	> 5%	
COC(=O)C(/C=C/C(C)(C)C)=C/OC1OC(=O)C(C)=C1C (centres unmarked) [Compound P-10, methyl (E,2E)-2-[(3,4-dimethyl-5-oxo-2H-furan-2-yl)oxymethylene]-5,5-dimethyl-hex-3-enoate]	> 50%	> 5%	
COC(=O)C(/C=C/C(C)(C)OC)=C/OC1C=C(C)C(=O)O1 (centres unmarked) [Compound P-12, methyl (E,2E)-5-methoxy-5-methyl-2-[(4-methyl-5-oxo-2H-furan-2-yl)oxymethylene]hex-3-enoate]	> 50%		< 3000 nM
C=C(C)C1(/C=C/C(=C\OC2C=C(C)C(=O)O2)C(=O)OC)C(=O)CC1(C)C (centres unmarked) [Compound P-15, methyl (E,2E)-4-(1-isopropenyl-2,2-dimethyl-4-oxo-cyclobutyl)-2-[(4-methyl-5-oxo-2H-furan-2-yl)oxymethylene]but-3-enoate]	> 50%	> 5%	< 3000 nM
COC(=O)C(/C=C/C(C)(C)C#N)=C/OC1C=C(C)C(=O)O1 (centres unmarked) [Compound P-16, methyl (E,2E)-5-cyano-5-methyl-2-[(4-methyl-5-oxo-2H-furan-2-yl)oxymethylene]hex-3-enoate]			< 3000 nM
COC(=O)C(/C=C/C(C)(C)N(C)C(C)=O)=C/OC1C=C(C)C(=O)O1 (centres unmarked) [Compound P-17, methyl (E,2E)-5-[acetyl(methyl)amino]-5-methyl-2-[(4-methyl-5-oxo-2H-furan-2-yl)oxymethylene]hex-3-enoate]			< 3000 nM
COC(=O)C(/C=C/C(C)(C)C(=O)OC)=C/OC1C=C(C)C(=O)O1 (centres unmarked) [Compound P-19, dimethyl (E,5E)-2,2-dimethyl-5-[(4-methyl-5-oxo-2H-furan-2-yl)oxymethylene]hex-3-enedioate]	> 50%	> 5%	< 3000 nM
COC(=O)C(/C=C/C(C)(C)C(=O)N(C)C)=C/OC1C=C(C)C(=O)O1 (centres unmarked) [Compound P-20, methyl (E,2E)-6-(dimethylamino)-5,5-dimethyl-2-[(4-methyl-5-oxo-2H-furan-2-yl)oxymethylene]-6-oxo-hex-3-enoate]			< 3000 nM
